For experiment [1], the target named is T1, Poly [ADP-ribose] polymerase tankyrase-1 (Homo sapiens, UniProt O95271).
T1 sequence (O95271 whole entry): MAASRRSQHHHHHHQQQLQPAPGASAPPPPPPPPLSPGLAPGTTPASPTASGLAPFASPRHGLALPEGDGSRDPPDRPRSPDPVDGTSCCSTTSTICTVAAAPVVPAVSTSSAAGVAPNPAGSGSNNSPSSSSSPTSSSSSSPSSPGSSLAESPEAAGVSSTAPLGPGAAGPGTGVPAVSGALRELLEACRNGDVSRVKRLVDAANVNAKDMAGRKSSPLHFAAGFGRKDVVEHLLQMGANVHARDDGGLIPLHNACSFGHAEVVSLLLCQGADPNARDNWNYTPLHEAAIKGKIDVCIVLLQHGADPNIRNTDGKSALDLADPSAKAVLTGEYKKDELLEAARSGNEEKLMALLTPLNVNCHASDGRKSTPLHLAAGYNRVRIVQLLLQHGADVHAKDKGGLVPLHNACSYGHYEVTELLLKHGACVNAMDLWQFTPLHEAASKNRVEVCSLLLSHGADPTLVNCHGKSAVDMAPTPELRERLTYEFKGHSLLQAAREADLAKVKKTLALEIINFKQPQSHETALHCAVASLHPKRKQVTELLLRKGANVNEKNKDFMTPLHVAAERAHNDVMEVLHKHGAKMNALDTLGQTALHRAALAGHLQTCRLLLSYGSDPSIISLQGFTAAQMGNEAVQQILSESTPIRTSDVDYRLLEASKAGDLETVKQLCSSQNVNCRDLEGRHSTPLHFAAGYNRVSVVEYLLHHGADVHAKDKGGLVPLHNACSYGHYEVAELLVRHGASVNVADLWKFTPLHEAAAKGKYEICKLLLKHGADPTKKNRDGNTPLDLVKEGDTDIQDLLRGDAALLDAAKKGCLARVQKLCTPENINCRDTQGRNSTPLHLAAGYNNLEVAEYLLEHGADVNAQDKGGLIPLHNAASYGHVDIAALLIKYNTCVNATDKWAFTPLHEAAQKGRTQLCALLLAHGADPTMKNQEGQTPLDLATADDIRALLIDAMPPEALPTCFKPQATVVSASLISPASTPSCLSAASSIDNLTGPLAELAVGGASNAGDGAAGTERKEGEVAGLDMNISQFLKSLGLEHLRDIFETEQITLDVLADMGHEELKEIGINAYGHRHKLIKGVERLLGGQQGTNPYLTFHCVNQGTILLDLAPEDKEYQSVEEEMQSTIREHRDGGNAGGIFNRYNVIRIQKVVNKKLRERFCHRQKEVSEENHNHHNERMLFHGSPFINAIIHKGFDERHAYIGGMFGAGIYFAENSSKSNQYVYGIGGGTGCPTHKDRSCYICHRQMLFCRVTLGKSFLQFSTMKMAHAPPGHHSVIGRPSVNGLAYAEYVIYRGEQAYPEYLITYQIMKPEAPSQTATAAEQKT
Briefly: Binding affinity to recombinant human N-terminal GSt-tagged TNKS1 (1000 to 1328 residues) expressed in baculovirus infected Sf9 cells by surface plasmon resonance analysis. Background: Surface plasmon resonance follows binding to a sensor surface in real time, without labels.

The target in experiment [2] is Poly [ADP-ribose] polymerase 1 (Homo sapiens, UniProt P09874). The experiment in a line: Binding affinity to recombinant human PARP1 expressed in baculovirus infected Sf9 cells by surface plasmon resonance analysis.
Experiment [3] has as its system A549. Briefly: cells. To be noted: Homo sapiens, A549, 72 h.
Description: (§1) Growth inhibition of human A549 cells after 72 hrs by MTT assay
The target in experiment [4] is T2, Poly [ADP-ribose] polymerase tankyrase-2 (Homo sapiens, UniProt Q9H2K2).
T2 sequence (Q9H2K2 whole entry): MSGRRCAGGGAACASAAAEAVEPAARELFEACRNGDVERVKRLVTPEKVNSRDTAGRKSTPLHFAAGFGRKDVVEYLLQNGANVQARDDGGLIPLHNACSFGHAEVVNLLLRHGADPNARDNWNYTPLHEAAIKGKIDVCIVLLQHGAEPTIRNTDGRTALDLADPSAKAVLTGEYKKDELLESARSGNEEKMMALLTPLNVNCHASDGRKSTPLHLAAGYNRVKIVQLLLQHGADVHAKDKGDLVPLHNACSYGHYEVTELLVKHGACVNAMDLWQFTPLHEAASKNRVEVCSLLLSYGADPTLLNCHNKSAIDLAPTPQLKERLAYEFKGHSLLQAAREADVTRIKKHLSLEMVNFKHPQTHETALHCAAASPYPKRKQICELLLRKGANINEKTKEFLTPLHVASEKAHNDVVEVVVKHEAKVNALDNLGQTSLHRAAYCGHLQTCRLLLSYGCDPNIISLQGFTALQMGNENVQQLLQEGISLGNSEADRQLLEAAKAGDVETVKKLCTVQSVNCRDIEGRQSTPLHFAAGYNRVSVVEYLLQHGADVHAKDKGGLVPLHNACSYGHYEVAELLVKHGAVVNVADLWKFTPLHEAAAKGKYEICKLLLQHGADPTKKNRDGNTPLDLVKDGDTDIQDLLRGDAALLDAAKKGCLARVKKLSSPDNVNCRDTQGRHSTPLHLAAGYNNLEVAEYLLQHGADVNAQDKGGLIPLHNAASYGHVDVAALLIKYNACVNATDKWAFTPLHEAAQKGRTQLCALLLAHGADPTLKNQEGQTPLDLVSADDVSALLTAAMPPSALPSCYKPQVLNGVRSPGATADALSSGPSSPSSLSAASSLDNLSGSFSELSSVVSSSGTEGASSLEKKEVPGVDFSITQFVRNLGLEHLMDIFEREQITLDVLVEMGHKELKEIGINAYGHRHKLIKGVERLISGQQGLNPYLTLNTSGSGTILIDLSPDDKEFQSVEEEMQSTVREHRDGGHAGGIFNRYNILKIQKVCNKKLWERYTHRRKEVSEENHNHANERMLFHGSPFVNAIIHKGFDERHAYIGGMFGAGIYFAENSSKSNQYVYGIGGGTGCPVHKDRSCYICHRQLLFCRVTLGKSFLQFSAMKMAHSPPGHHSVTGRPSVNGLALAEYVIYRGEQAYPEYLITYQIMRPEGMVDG
Briefly: Binding affinity to recombinant human N-terminal His-tagged TNKS2 (Ser959 to Gly1166 residues) expressed in Escherichia coli by surface plasmon resonance analysis.

In experiment [5] the target is T3, Bromodomain-containing protein 9 (Homo sapiens) (UniProt Q9H8M2).
T3 sequence (whole entry): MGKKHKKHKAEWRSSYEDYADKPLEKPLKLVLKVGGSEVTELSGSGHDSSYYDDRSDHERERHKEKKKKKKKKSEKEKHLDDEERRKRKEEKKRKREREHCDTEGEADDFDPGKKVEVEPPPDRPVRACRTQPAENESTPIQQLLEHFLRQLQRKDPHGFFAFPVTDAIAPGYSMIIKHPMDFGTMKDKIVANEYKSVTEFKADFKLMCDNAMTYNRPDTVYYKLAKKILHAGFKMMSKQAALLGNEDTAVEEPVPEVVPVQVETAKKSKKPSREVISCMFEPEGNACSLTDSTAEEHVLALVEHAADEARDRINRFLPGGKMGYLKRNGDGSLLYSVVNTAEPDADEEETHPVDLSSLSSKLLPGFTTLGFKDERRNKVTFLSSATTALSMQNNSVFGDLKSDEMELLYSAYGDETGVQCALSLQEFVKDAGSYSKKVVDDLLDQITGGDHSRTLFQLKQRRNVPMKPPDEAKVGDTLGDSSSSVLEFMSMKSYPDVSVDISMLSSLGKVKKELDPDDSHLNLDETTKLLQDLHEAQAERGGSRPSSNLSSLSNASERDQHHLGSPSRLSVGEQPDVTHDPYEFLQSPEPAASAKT
The experiment in a line: Binding affinity to BRD9 (unknown origin) by surface plasmon resonance analysis.

Experiment [6] addresses Casein kinase II alpha/beta (Homo sapiens, UniProt P67870+P68400). Briefly: Binding affinity to recombinant human CK2alpha/beta expressed in Escherichia coli by surface plasmon resonance analysis.
Experiment [7] concerns A549. Briefly: Antiproliferative activity against human A549 cells assessed as effect on cell viability at 100 uM after 72 hrs by MTT assay relative to control. Format: functional. A general note: Tetrazolium dyes change colour on reduction, which living cells bring about.
In experiment [8] the test system is A549.
Description: as §1

Consider six molecules from ChEMBL document CHEMBL4229413, “Identification by Inverse Virtual Screening of magnolol-based scaffold as new tankyrase-2 inhibitors” (Bioorg Med Chem, 2018).

The source made the active and inactive calls. The calls are words filed in the database; no cut-off is given here.

Poly [ADP-ribose] polymerase 1, sequence (P09874 whole entry): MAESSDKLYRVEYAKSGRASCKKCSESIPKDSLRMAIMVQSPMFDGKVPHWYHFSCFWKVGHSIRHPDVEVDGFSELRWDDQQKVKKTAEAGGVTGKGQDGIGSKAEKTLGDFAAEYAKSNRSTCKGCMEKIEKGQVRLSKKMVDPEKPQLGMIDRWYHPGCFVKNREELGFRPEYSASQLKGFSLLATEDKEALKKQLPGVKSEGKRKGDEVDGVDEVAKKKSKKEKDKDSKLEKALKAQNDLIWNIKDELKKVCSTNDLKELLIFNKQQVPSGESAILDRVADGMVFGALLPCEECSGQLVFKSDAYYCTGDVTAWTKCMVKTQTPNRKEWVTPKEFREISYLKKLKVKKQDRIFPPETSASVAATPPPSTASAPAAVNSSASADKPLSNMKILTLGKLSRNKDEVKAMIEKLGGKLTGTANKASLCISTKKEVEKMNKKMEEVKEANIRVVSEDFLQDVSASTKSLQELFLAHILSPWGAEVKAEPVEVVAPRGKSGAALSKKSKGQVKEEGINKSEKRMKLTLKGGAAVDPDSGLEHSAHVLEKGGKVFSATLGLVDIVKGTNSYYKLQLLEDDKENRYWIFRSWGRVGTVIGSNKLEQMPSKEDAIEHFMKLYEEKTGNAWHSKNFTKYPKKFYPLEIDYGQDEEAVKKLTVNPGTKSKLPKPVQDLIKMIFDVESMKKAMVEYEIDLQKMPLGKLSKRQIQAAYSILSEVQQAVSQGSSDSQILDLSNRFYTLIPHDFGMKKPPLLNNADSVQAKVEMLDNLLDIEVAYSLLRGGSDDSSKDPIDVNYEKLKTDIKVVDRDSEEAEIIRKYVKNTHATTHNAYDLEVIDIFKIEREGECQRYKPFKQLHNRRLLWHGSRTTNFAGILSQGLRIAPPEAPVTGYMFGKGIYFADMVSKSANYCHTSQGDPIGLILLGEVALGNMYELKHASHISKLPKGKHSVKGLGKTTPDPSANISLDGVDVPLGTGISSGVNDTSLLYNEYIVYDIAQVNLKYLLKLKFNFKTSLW
Casein kinase II alpha/beta, sequence (P67870 whole entry): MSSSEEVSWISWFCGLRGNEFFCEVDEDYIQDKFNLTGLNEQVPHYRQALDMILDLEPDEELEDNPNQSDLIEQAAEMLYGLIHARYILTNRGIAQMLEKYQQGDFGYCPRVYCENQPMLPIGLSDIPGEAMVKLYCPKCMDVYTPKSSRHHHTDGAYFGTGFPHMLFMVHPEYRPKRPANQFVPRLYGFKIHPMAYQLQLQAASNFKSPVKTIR
Casein kinase II alpha/beta, sequence (P68400 whole entry): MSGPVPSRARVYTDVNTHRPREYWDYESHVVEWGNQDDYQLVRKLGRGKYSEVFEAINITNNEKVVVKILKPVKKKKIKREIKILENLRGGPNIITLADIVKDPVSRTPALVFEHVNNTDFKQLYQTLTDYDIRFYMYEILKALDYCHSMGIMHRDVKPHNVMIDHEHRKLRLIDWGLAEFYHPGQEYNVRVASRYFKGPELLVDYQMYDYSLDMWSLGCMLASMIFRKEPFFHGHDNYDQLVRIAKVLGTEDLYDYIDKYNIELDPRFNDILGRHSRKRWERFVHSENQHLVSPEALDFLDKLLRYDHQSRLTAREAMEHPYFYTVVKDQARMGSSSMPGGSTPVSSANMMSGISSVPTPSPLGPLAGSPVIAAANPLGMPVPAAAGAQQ

One may read the Kd as the equilibrium constant for the complex coming apart. One may read the IC50 as the midpoint of a concentration-inhibition curve. High values mean weaker potency in that assay, low ones greater potency in that assay. Regarding `C=CCc1cc(O)c(O)c(-c2cc(CC=C)cc(OC)c2O)c1`, the dissociation constant Kd was 520 nM in experiment [1] (read-out: Kd), “Not Active” in experiment [2] (sf9), 21 nM in experiment [4] (read-out: Kd) and “Not Active” in experiment [6]. Further, the IC50 with A549 [3] worked out at 4.7 µM. In addition, the outcome in experiment [5] was inactive.
Take `Oc1nc(-c2ccc(C(F)(F)F)cc2)nc2c1CSCC2`: the 50% inhibitory concentration (IC50) in the experiment on A549 [3] is 12.3 µM.
Turning to `C=CCc1ccc(O)c(-c2cc(CC=C)cc(O)c2O)c1`, the dissociation constant Kd in experiment [1] (read-out: Kd) is 5260 nM; in experiment [2] (read-out: Kd), 1250 nM; in experiment [4], “Not Active”; in experiment [6], “Not Active”. Moreover, the result in experiment [5] was inactive.
`C=CCc1ccc(O)c(-c2cc(CC=C)ccc2O)c1` [MAGNOLOL]: the dissociation constant Kd result in experiment [1] (sf9), in experiment [2] (sf9), in experiment [4] and in experiment [6] was “Not Active” in each case. In addition, the result in experiment [5] was inactive.
`COc1cc(CCCO)cc(-c2cc(CCCO)cc(OC)c2O)c1O`: the Kd result in experiment [1] (sf9) is “Not Active”; in experiment [2] (sf9), “Not Active”; in experiment [4] (read-out: Kd) it was 18.5 nM; in experiment [6], “Not Active”. For the same molecule, in the experiment on A549 [7], the Activity is 20 - 30%. Further, the outcome in experiment [5] was inactive. For the same molecule, in the experiment on A549 [8], the IC50 entry is “Not Active”.
In the case of `COc1cc(CCCOC(C)=O)cc(-c2cc(CCCOC(C)=O)cc(OC)c2O)c1O`, the dissociation constant Kd result in experiment [1] (sf9) was “Not Active”; in experiment [2] (sf9), “Not Active”; in experiment [4] (read-out: Kd), 6.5 nM; in experiment [6], “Not Active”. For the same molecule, the Activity in the experiment with A549 [7] is given as 20 - 30%. Besides, in experiment [5], the outcome was inactive. In addition, the half-inhibitory concentration (IC50) entry in the experiment on A549 [8] was “Not Active”.
